This is an account of results in article PMC9330922, “Genomewide Analysis and Biological Characterization of Cathelicidins with Potent Antimicrobial Activity and Low Cytotoxicity from Three Bat Species” (Antibiotics, 2022).

Structures are written as SMILES. Like-named read-outs stand apart in the source and are kept apart here.

The term inhibition denotes the relative decrease from the control value, in per cent.

Experiment in all cases: microbe, parasite or virus in culture
Type in all cases: cell-based

Assay [1] relates to Candida albicans KCTC 7270. As to conditions: WST colorimetric, YMB. The procedure: (§1) The antifungal activities of the peptides were evaluated against two yeast fungi, C. albicans KCTC 7270 and C. cuniculi KCTC 17232, and a mold fungus, M. hiemalis KCTC 26779. C. albicans and C. cuniculi were cultured in yeast mold broth (YMB; BD Science) agar at 35 °C and 25 °C, respectively. Cells were prepared in YMB for C. albicans and RPMI 1640 medium (with l-glutamine, without phenol red and sodium bicarbonate, Sigma Aldrich, Saint Louis, MO, USA) and adjusted to pH 7.0 with 0.165 M 3-(N-morpholino) propanesulfonic acid (MOPS) (iNtRON Biotechnology, Seoul, Korea), as previously described for C. cuniculi. According to the 0.5 McFarland standard, cells at 1.5 × 10^5 CFU/well were seeded into a 96-well plate containing 180 µL of fresh medium. Subsequently, peptides at final concentrations of 5–45 ug/mL (1.2–19.3 μM) peptides were added to each well. Ciclopirox (≥98% (HPLC), Sigma Aldrich) was used as a reference for the antifungal activity. The antifungal assay was conducted in the same manner as the antibacterial assay described above, according to the manufacturer’s protocol. Briefly, C. albicans and C. cuniculi were incubated at 35 °C for 6 h and 25 °C for 47 h, respectively, and 10 µL of the coloring reagent was added and further incubated for 18 h and 25 h. The MIC values were determined in the same way as for the antibacterial assay.

For assay [2], the system named is Cryptococcus cuniculi KCTC 17232. Conditions: WST colorimetric. The procedure:
as §1

The subject of assay [3] is Mucor hiemalis KCTC 26779. As to conditions: KCTC26779, concentration not given, peptides tested at 20, 40, and 80 µg/mL, fluvastatin sodium 70 µM, read-out: rate of metabolic inhibition. The procedure:
To evaluate the antifungal activity of peptides against M. hiemalis, the metabolic activity of hyphae was measured using the same colorimetric assay as described above, with slight modifications to a previous study. Briefly, M. hiemalis was streaked onto malt extract broth (BD Biosciences) agar in a Petri dish and cultured at 25 °C for seven days. Then, conidia were collected from the dish by adding phosphate buffered saline (PBS) containing 0.05% Tween-80 (Sigma Aldrich) and filtered through sterilized 40 um cell strainer (SPL Life Science, Pocheon, Korea) to remove hyphae. After washing twice with PBS and centrifugation, 5 × 10^4 conidia were counted using a hemocytometer, suspended in 50 µL of RPMI 1640 as described above, and seeded in wells of a 96-well plate. After 16 h of incubation at 25 °C for hyphae formation, the plate was centrifuged at 3000× g and the media were changed. The peptides were then added at final concentrations of 20, 40, and 80 µg/mL. Fluvastatin sodium (70 µM; Sigma-Aldrich) was used as a reference for antifungal activity. […] The absorbance at 450 nm (for the treated group and control) and 650 nm (for the background) was measured for each well using a microplate reader (xMarkTM spectrophotometer; Bio-Rad). The metabolic activity of the fungal cells was calculated using the following equation. […]

On to `Cc1cc(C2CCCCC2)n(O)c(=O)c1` [Ciclopirox], for which the MIC in assay [1] (Candida albicans, KCTC7270, value in brackets, 35 °C 6 h + 18 h, read-out: MIC (converted)) was 16.9 µM; in assay [1] (1.5 × 10^5 CFU/well, 35 °C 6 h + 18 h coloring reagent), 3.5 µg/mL; in assay [2] (Cryptococcus, KCTC17232, value in brackets, RPMI 1640 with MOPS pH 7.0, 25 °C 47 h + 25 h, read-out: MIC), 2.4 µM; in assay [2] (RPMI 1640 with MOPS pH 7.0, 1.5 × 10^5 CFU/well, 25 °C 47 h + 25 h coloring reagent) it was 0.5 µg/mL.

For the compound `CC(C)n1c(/C=C/C(O)CC(O)CC(=O)O)c(-c2ccc(F)cc2)c2ccccc21` (centres unmarked) [fluvastatin sodium, Fluvastatin sodium], in assay [3], the inhibition at 70 µM is around 80%.
